Laboratory results published in patent publication US11039995B2, “Topical compositions for reducing the effects of aging” (Samson Pharma, LLC, priority 2013, dated 2021).

Experiments:
[1] = cited from earlier work
[2] = tested on: promyelocytic leukemia cells; conditions: relative to all-trans retinoic acid; cited from earlier work
skin of albino rabbits = test: Acute dermal irritation/corrosion (OECD 404), single topical 4-hour application; type: in vivo
Method: A study was conducted based upon the following references: OECD 404, Organization for Economic Co-Operation and Development (OECD), Guidelines for the Testing of Chemicals, “Acute Dermal Irritation/Corrosion”, adopted 24 Apr. 2002. ISO 10993-12, 2012, Biological Evaluation of Medical Devices—Part 12: Sample Preparation and Reference Materials. ISO/IEC 17025, 2005. General Requirements for the Competence of Testing and Calibration Laboratories.
The skin of three albino rabbits was prepared for testing by clipping the skin of the trunk free of hair at the application sites within 24 hours of the test. The sites of application were not abraded deliberately or accidentally during preparation. Tamibarotene was administered at dose levels of 0.02%, 0.04%, and 0.08% in 60% DMSO. The animals were treated by introducing each dose level (0.5 ml) under gauze patches at individual application sites. The control (0.5 ml of 60% DMSO) was applied to a fourth site.
As it was suspected that tamibarotene might produce severe irritancy/corrosion, a single animal test was initially employed. Test patches of each dose level and control were applied. After three minutes, the skin sites were examined by gently lifting the bandage to examine the skin without bandage removal. […] If a corrosion effect was observed after three minutes or one hour, the test was to be immediately terminated.
Because an irritation or corrosive effect was not observed in the initial test after one hour, the response was confirmed using two additional animals dosed with each dose level and control at individual application sites for four hours. At the end of the exposure period, the wrapping was removed from and the skin washed with USP sterile Water for Injection (SWFI) to remove any test substance still remaining. […] Observations were scored according to the Draize Scale for Scoring Skin Reactions.

[3] = clinical trials; cited from earlier work

SMILES: CC1=C(/C=C/C(C)=C/C=C/C(C)=C/C(=O)O)C(C)(C)CCC1 [ATRA, all-trans retinoic acid]
- plasma concentration during daily administration [1]: declines considerably

SMILES: CC1(C)CCC(C)(C)c2cc(NC(=O)c3ccc(C(=O)O)cc3)ccc21 [tamibarotene, Benzoic acid,4-[[(5,6,7,8-tetrahydro-5,5,8,8-tetramethyl-2-naphthalenyl)amino]carbonyl]—]
- plasma concentration during daily administration [1]: sustains plasma level
- potency as an inducer of differentiation compared to ATRA [2]: several times more potent
- irritation or corrosive effect after one hour (skin of albino rabbits; initial single animal test, 0.02%, 0.04%, 0.08% in 60% DMSO, after one hour): not observed
- serious skin reaction after three minutes (skin of albino rabbits; initial single animal, 0.02%, 0.04%, 0.08% in 60% DMSO, 0.5 ml under gauze patches, examined after three minutes): no serious skin reaction was observed
- primary dermal irritation classification (skin of albino rabbits; single topical 4-hour application, dose levels 0.02%, 0.04%, 0.08% in 60% DMSO): non-irritant
- body weight (skin of albino rabbits; three albino rabbits, during the study): gained weight
- signs of erythema or edema (Draize Scale) (skin of albino rabbits; three rabbits, 4-hour exposure, 0.02%, 0.04%, 0.08% in 60% DMSO, observed 60 minutes, 24, 48, 72 hours after bandage removal): None of the test sites presented any signs of erythema or edema
- adverse side effects compared to ATRA [3]: milder
